Entries after “also recorded” stand apart in the source; their conditions may differ.
Assays:
[1] = solubility observed when preparing stock solutions; format: physicochemical; conditions: in water / medium; stock of 2 mM feasible with Tween80 and DMSO
Procedure: Hereafter, the stock solutions of the compounds were used in three repetitions in a minimal inhibitory concentration (MIC) assay at a 2-fold dilution range with various bacteria from the gram-positive and gram-negative group and a yeast, Candida albicans. The concentrations that show only less than 10% growth after 24 h were considered the MIC90-values, whereas the concentrations that show 50% growth after 24 h when compared to the bacterial growth control were considered the MIC50-values. Escherichia coli and Staphylococcus aureus were used as representatives for a gram-negative bacteria and gram-positive bacteria, respectively. Furthermore, the yeast C. albicans was also tested.
Conclusion and discussion. […] With the addition of solvents like Tween80 and DMSO a stock solution in medium of 2 mM was feasible. This allowed a maximum of testing concentration of 1 mM. […] Therefore, with the application of solvents a maximum testing concentration of 0.575 mM was possible. If the real growth-inhibiting concentration (MIC90) lies above these maximum assay concentrations, then it would not be detected in this assay.

[2] = test system: AMR Staphylococcus aureus LUH14616 persisters; assay: Anti-persister experiment, antibiotics-exposed mature biofilm; format: cell-based; conditions: after 3 days rifampicin and ciprofloxacin, 24 hrs exposure, FIG. 25
Procedure: Experimental design. The capacity of AM-2 (Bis(4-chlorophenyl) disulfide) and AM-8 to reduce bacterial counts in mature biofilms was assessed as described earlier (Scheper et al (2021) Scheper H, Wubbolts J M, Verhagen J A M, de Visser A W, van der Wal RJJP, Visser L G, de Boer M J G, and Nibbering P H. SAAP-148 eradicates MRSA persisters within mature biofilm models simulating prosthetic joint infection. Front. Microbiol. 12:625952. Doi: 10.3389/fmicb.2021.625952. eCollection 2021) with one modification, i.e., the biofilms were exposed daily to the compounds for up to 4 consecutive days. Briefly, antimicrobial resistant (AMR) Staphylococcus aureus LUH14616 were cultured to mid-log phase in tryptic soy broth (TSB; Oxoid Ltd, Basingstoke, UK) at 37° C. and 200 rpm, centrifuged for 10 min at 3,000 rpm and then resuspended in brain heart infusion broth (BHI; Oxoid Ltd, Basingstoke, UK). Next, approximately 1×10^7 CFU bacteria in BHI were cultured in a 96-well flat-bottom polystyrene microplate sealed with breathable seal for 7 days. […] To take possible slow-growing bacteria into account we analyzed the bacterial plates again after a week. Results are expressed as the number of surviving bacteria (CFU/ml).

[3] = test system: Staphylococcus aureus LUH14616 mature biofilms; assay: Biofilm eradication assay, 7-day mature biofilms; format: cell-based; conditions: 7-day mature biofilm
Procedure: Biofilm eradication assay. The assay to reduce bacterial counts in mature biofilms was assessed as described earlier (Scheper H J, Wubbolts J M, Verhagen J A M, de Visser A W, van der Wal R J P, Visser L G, de Boer M J J G, and Nibbering P H. SAAP-148 eradicates MRSA persisters within mature biofilm models simulating prosthetic joint infection. Front. Microbiol. 12:625952. Doi: 10.3389/fmicb.2021.625952. eCollection 2021) with a single modification, i.e., the biofilms were exposed daily to AM-8 for up to 4 consecutive days. Briefly, approximately 1×10^7 CFU logarithmic phase bacteria in BHI were cultured in a 96-well flat-bottom polystyrene microplate sealed with breathable seal for 7 days. Next, mature biofilms were washed twice with PBS, then exposed for 24 hrs to AM-8 or as control the diluent of this compound. Hereafter the biofilms were washed and either re-exposed to AM-8/its diluent for another day or—in case of termination of the daily exposures-sonicated for microbiological quantification of the number of viable bacteria. Results are expressed as the number of surviving bacteria at the various days of exposure. Experiment was performed in triplicate.

[4] = test system: Staphylococcus aureus LUH14616; assay: Resistance development on repeated exposure (19 passages); format: cell-based
Procedure: Experimental design. Potential resistance to AM-8 was assessed as described by Habets and Brockhurst (2012) (Therapeutic antimicrobial peptides may compromise natural immunity. Biol Lett 8:416-418). Briefly, log phase bacteria (S. aureus LUH 14616) were diluted in RPMI-mod to a concentration of 2×10^6 CFU/ml. Next, 50 μl of this bacterial suspension were mixed with 50 μl of a range of dilutions of AM-8 or—as comparator-rifampicin in v-bottom 96-wells plates. Thereafter, the plates were covered with a plastic seal and incubated for 24 hrs at 37° C. in a shaking incubator (200 rpm). The plates were then centrifuged for 5 min at 2,000 rpm and the growth inhibition was determined. To start the resistance development testing, 100 μl of a mid-log bacterial suspension containing 2×10^6 CFU/ml were mixed with 150 μl of RPMI-mod and 5 μl of this diluted bacterial suspension were applied to v-bottom wells containing a dilution range of AM-8 or antibiotics (various concentrations below and above MIC) in RPMI-mod (RPMI 1640 modified with 20 mM Hepes and L-glutamine and without sodium bicarbonate (Sigma-Aldrich); further referred to as RPMI-mod). After 24 hrs at 37° C. in a shaking incubator (200 rpm) the growth inhibition was determined. 100 μl of the bacterial suspension from the 0.5×MIC wells were mixed with 150 μl of RPMI-mod and 5 μl of the diluted bacterial suspension were used to inoculate a new 96-wells plate containing a dilution series of AM-8 or rifampicin, and these mixtures were then incubated as described above. If resistance developed, the concentration range of AM-8 and/or antibiotic was adjusted accordingly. This was repeated 19 times. Results are expressed as the fold-increase in MIC compared to the MIC at the start of the experiment.

Compound | solubility (observed) [1] | effect on persisters within antibiotics-exposed mature biofilm [2] | bacterial counts in mature biofilms, multiple daily exposures ([3]; daily exposure up to 4 days, FIG. 24, listed as AM-8) | biofilm reducing effect of a single dose ([3]; dose range study, results not shown) | resistance development ([4]; 19 passages, listed as AM-8) | fold-increase in MIC compared to the MIC at the start ([4]; within 19 passages, two batches, seen occasionally)
Clc1ccc(SSc2ccc(Cl)cc2)cc1 [Bis (4-chlorophenyl) disulfide, Bis(4-chlorophenyl) disulfide] | low solubility | at the highest dose was effectively against persisters | – | – | – | –
CC(C)SS(=O)(=O)C(C)C [Di-isopropyl thiosulfonate] | – | – | dose-dependently significantly reduced the bacterial counts in mature biofilms; also recorded: able to eliminate all bacteria within biofilms | increased in time without fully eradicating the bacteria within the biofilm | no resistance development; also recorded: little/no resistance | ≤ 2 fold
